According to patent US8425968B2, “Beverage preservative system containing pimaricin-cyclodextrin complex” (PepsiCo., Inc., priority 2009, dated 2013):
Converted amounts (≈) assume the structure as drawn.

What was measured:
[1] = 25° C., pH approximately 6.4; cited from earlier work
physchem = type: physicochemical
[2] = test system: Aspergillus (Pepsi Isolate); test: 16 week mold spore challenge MIC in beverage; type: cell-based, Aspergillus niger; conditions: pH 3.4, read-out: 16 week incubation MIC (ppm)
Description: (§1) A 2% fruit juice based non-carbonated beverage of pH 3.4 and about 12 Brix was formed by combining the following ingredients.
(§2) The preparation of beverage was divided into two aliquots.
(§3) Each of 24 such preparations was then divided equally across 8 separate tubes making for 192 samples. […] The tubes were sealed in a manner that prohibits moisture evaporation.
(§4) The mold spores employed were obtained from the following organisms. Aspgergillus niger isolate of Pepsi; ATCC strain 90900 (Talaromyces spectabilis), ATCC strain 48441 (Pencillium galbrum), ATCC 24088 (Byssochlamys fulva), ATCC 96468 (Neosartorva fischeri) ATCC strain 96463 (Talaromyces flavus) and ATCC strain ATCC 10512 (Talaromyces flavus var. flavus). Each spore type was present at 20 spores per milliliter.

[3] = purportedly; cited from earlier work
[4] = test system: Neosartorya fischeri ATCC 96468; test: 16 week mold spore challenge MIC in beverage; type: cell-based; conditions: Aspergillus fischeri, ATCC96468, pH 3.4; read-out: 16 week incubation MIC (ppm)
Description: as §2, §3, §4
(§5) The second aliquot of beverage is identical to the 1st aliquot except for the presence of cyclodextrin-pimaricin complex. […] Each of 36 such preparations was then divided equally across 8 separate tubes making for 288 samples. […] The tubes were sealed in a manner that prohibits moisture evaporation.
(§6) The mold spores employed were obtained from the following organisms Paecilomyces puntoni (Pepsi isolate D3), ATCC 36614 (Byssochlamys nieva) ATCC 24088 (Byssochlamys fulva), ATCC 96468 (Neosartorya fischeri) ATCC strain 96463 (Talaromyces flavus) and ATCC strain ATCC 10512 (Talaromyces flavus var. flavus). Each spore type was present initially at 20 spores per milliliter of product. Spores for Byssochlamys nieva were developed at both 25° C. on Potato Dextrose and 30° C. on Malt Extract in order to ensure some variation in the ratio of asci (ascospores) to conidiospores. […]
(§7) One sample remained un-inoculated and served as a negative control. […] These samples served as the positive controls in this test. […]
(§8) After inoculation with spores from various mold, samples were incubated at 25-27° C. for a period of 16 weeks before.
(§9) As outlined previously, two separate aliquots of beverage were formulated, one containing Pimaricin in complex with g-cyclodextrin and one without. Both aliquots contained 30 ppm Cinnamic acid.

[5] = test system: Byssochlamys fulva ATCC 24088; test: 16 week mold spore challenge MIC in beverage; type: cell-based; conditions: Paecilomyces fulvus, ATCC 10099 / ATCC 24088, pH 3.4; read-out: 16 week incubation MIC (ppm)
Description: as §2, §3, §4, §5, §6, §7, §8, §9

[6] = test system: Talaromyces flavus var. flavus ATCC 10512; test: 16 week mold spore challenge MIC in beverage; type: cell-based; conditions: ATCC10512, pH 3.4, read-out: 16 week incubation MIC (ppm)
Description: as §2, §3, §4, §5, §6, §7, §8, §9

[7] = test system: Talaromyces flavus ATCC 96463; test: 16 week mold spore challenge MIC in beverage; type: cell-based; conditions: ATCC96463, pH 3.4, read-out: 16 week incubation MIC (ppm)
Description: as §2, §3, §4, §5, §6, §7, §8, §9

bio-indicator mold [8] = test: Preservation of beverage for 16 weeks against the array of bio-indicator / spoilage organisms; type: cell-based
Description: As used herein, the terms “preserve,” “preservative,” and “preservation” refer to a food or beverage product protected against or a composition able to stop or completely prevent spoilage of a product that is the result of the growth of spoilage microorganisms for a period of at least 16 weeks. This period is in keeping with the time required to transport a beverage product from location of manufacture, through distribution channels, into the hand of the consumer. Absence of spoilage is noted by absence any evidence of growth of spoilage organisms (turbidity, viable count, direct microscopic count or other standard methods of enumeration) and by the absence of any discernable change in the product attributes that could be routinely attributed to metabolism of spoilage organisms.
as §3, §5
An apple juice based beverage was prepared to contain 30 ppm EDTA (0.003%) as shown below. The beverage was divided into two aliquots. […]

[9] = test system: Talaromyces spectabilis ATCC 90900; test: 16 week mold spore challenge MIC in beverage; type: cell-based; conditions: Paecilomyces variotii, ATCC90900, pH 3.4; read-out: 16 week incubation MIC (ppm)
Description: as §1, §2, §3, §4

[10] = test system: Penicillium glabrum ATCC 48441; test: 16 week mold spore challenge MIC in beverage; type: cell-based; conditions: ATCC48441, pH 3.4, read-out: 16 week incubation MIC (ppm)
Description: as §1, §2, §3, §4

bio-indicator mold [11] = conditions: reported by the manufacturer of DMDC; cited from earlier work

solubility (physchem; 4 °C, pH 3.4, aqueous buffer, thermodynamic from solid) [µg/mL] | solubility at 24 h (physchem; 25 °C, pH 3.4, aqueous buffer, thermodynamic from solid) [µg/mL] | solubility limit in high acid beverage (physchem; pH 3.4) [ppm] | MIC [2] [µg/mL] | MIC [5] [µg/mL] | MIC [6] [µg/mL] | MIC [7] [µg/mL] | MIC [9] [µg/mL] | MIC [10] [µg/mL] | SMILES | solubility in pure water [1] [µg/mL] | pKa of carboxylic acid group [3] | MIC [4] [µg/mL] | mold able to grow at highest concentration in solution (bio-indicator mold [8]; 20.0 ppm un-complexed Pimaricin, apple juice beverage pH 3.4) [%] | minimum initial stand alone concentration needed to preserve product for 16 weeks (bio-indicator mold [8]; stand alone) [mg pimaricin per liter] | concentration required to stabilize beverage for 16 weeks against vegetative yeast, mold and bacteria (bio-indicator mold [11])
10 (≈ 15 µM) | 20 (≈ 30 µM) | ~10 | 18.4 (≈ 27.6 µM) | 16.9 (≈ 25.4 µM) | > 20 | > 20 | 10.3 (≈ 15.5 µM) | 5.7 (≈ 8.56 µM) | CC1O[C@@H](O[C@H]2/C=C/C=C/C=C/C=C/C[C@@H](C)OC(=O)/C=C/[C@H]3O[C@@H]3C[C@H](O)C[C@]3(O)C[C@H](O)[C@@H](C(=O)O)[C@H](C2)O3)C(O)C(N)[C@@H]1O (stereo partly drawn) [Pimaricin] | 52 (≈ 78.1 µM) | ~6.5 | > 20 | > 50 | 400 | 
 |  |  |  |  |  |  |  |  | COC(=O)OC(=O)OC [DMDC, Dimethyl dicarbonate] |  |  |  |  |  | at least 250 mg/liter
